Experimental data as given in US10513731B2, “Modified nucleotides” (Illumina Cambridge Limited, priority 2002, dated 2019).

What was measured:
DNA polymerase = settings: eight termination assays, each with a different DNA polymerase; cited from earlier work
[1] = biological target: T1, polymerase (Thermococcus sp. 9° N exo −Y409V A485L) (Thermococcus sp., UniProt Q56366, A485L/D141A/E143A/Y409V); assay: Multiple cycles of incorporation, deblocking and capping on hairpin DNA attached to streptavidin beads, analysed by gel; assay type: biochemical; settings: 2 μM FFN, 100 nM polymerase, 65° C. 10-15 minutes; deblocking with TCEP 0.1M, 65° C. 15 minutes
T1 construct: purchased New England Biolabs
Experimental: By attaching a hairpin DNA (covalently attached self complementary primer/template) to a streptavidin bead The reaction can be performed over multiple cycles as shown in FIGS. 5 and 6.
Remove the storage buffer and wash the beads 3 times with TE buffer (Tris-HCl pH 8, 10 mM and EDTA, 1 mM). Resuspend in B & W buffer (10 mM Tris-HCl pH 7.5, 1 mM EDTA and 2.0 M NaCl), add biotinylated ^32P labelled hairpin DNA with appropriate overhanging template sequence. Allow to stand at room temperature for 15 minutes. Remove buffer and wash beads 3 times TE buffer.
To a solution of Tris-HCl pH 8.8 50 mM, Tween-20 0.01%, MgSO4 4 mM, MnCl2 0.4 mM (except cycle 1, 0.2 mM), add 2 μM FFN and 100 nM polymerase. This solution is then added to the beads and mixed thoroughly and incubated at 65° C. for 10-15 minutes. The reaction mixture is removed and the beads washed 3 times with TE buffer.
Tris-(2-carboxyethyl)phosphines trisodium salt (TCEP) (0.1M) is added to the beads and mixed thoroughly. The mixture was then incubated at 65° C. for 15 minutes. The deblocking solution is removed and the beads washed 3 times with TE buffer. […]
The reaction products can be analysed by placing the bead solution in the well of a standard 12% polyacrylamide DNA sequencing gel in 40% formamide loading buffer. […]

[2] = biological target: T1, polymerase (Thermococcus sp. 9° N exo −Y409V A485L); assay: Enzyme incorporation of 3′-blocked dNTPs on a P32-labelled DNA primer/template, followed by a chase with native nucleoside triphosphates; assay type: biochemical
Experimental: (§1) To a 100 nM DNA primer/template (primer previously labelled with P32 and T4 polynucleotide kinase) in Tris-HCl pH 8.8 50 mM, Tween-20 0.01%, and MgSO4 4 mM, add 2 μM compound 6 and 100 nM polymerase (Thermococcus sp. 9° N exo ^−Y409V A485L supplied by New England Biolabs). The template consists of a run of 10 adenine bases to show the effect of the block. The reaction is heated to 65 C for 10 mins. To show complete blocking, a chase is performed with the four native, unblocked nucleoside triphosphates.
as §1, with “compound 38” for “compound 6”

T1 sequence (Q56366 whole entry D141A/E143A/Y409V/A485L): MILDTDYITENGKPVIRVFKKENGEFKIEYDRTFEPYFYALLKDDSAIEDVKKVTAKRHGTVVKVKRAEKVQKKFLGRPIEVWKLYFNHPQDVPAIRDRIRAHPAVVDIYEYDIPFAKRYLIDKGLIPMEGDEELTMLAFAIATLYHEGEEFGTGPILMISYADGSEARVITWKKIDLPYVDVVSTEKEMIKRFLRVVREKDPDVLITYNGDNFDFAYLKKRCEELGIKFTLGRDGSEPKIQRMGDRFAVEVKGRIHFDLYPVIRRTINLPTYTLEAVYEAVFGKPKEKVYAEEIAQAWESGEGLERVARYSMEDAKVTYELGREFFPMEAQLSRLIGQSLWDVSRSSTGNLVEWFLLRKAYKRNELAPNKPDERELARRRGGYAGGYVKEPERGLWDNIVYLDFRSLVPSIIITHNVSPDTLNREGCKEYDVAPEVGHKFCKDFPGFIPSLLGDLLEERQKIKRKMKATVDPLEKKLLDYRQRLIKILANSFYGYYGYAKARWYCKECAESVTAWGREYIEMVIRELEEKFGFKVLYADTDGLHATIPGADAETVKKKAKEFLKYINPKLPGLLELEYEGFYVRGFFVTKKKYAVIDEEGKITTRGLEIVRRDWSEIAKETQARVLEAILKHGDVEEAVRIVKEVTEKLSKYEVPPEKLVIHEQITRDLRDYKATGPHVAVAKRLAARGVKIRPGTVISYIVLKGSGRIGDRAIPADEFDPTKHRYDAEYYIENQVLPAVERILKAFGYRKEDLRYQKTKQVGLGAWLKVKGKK

SMILES	ability to terminate DNA synthesis (DNA polymerase)	cycles of incorporation [1]	incorporation of the blocked nucleotide ([2]; 2 μM compound, 100 nM polymerase, 100 nM primer/template, template with run of 10 adenine bases, 65 C for 10 mins)	block to further incorporation ([2]; chase with the four native, unblocked nucleoside triphosphates)
C=CCO[C@H]1C[C@H](n2cnc3c(N)ncnc32)O[C@@H]1COP(=O)(O)OP(=O)(O)OP(=O)(O)O [3′-allyl dATP, 3′allyl deoxyriboadenosine 5′-triphosphate]	terminate DNA synthesis in a single termination assay, out of eight			
CCN1/C(=C/C=C/C2=[N+](CCCCCC(=O)NCCSSCCC(=O)NCC#Cc3cn(C4CC(OCN=[N+]=[N-])C(COP(=O)(O)OP(=O)(O)OP(=O)(O)O)O4)c(=O)[nH]c3=O)c3ccc(S(=O)(=O)[O-])cc3C2(C)C)C(C)(C)c2cc(S(=O)(=O)O)ccc21 (centres unmarked) [compound 6]		six	Quantitative incorporation	effective block to further incorporation
CCN1/C(=C/C=C/C2=[N+](CCCCCC(=O)NCCSSCCC(=O)NCC#Cc3cn([C@H]4CC(OCN=[N+]=[N-])[C@@H](COP(=O)(O)OP(=O)(O)OP(=O)(O)O)O4)c4nc(N)[nH]c(=O)c34)c3ccc(S(=O)(=O)[O-])cc3C2(C)C)C(C)(C)c2cc(S(=O)(=O)O)ccc21 (some centres unmarked) [compound 24]		Two and two		
